Experimental data published in ChEMBL document CHEMBL1201862, “PubChem BioAssay data set” (2004).
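Dose response: 5 concentrations. Exposure: 48 h. Format: 96-well plates. Endpoint: linear interpolation; highest concentration if not reached. At the GI50, growth is halved.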 Calls of active or inactive are those of the source. No stated cut-off is given here; in the data, active = GI50 up to about 1.1 µM and inactive = higher.

How the values were obtained:
Test in all cases: growth of human tumour cells (NCI), 48 h
NCI-H23 = tested on: NCI-H23
HOP-92 = tested on: HOP-92
A498 = tested on: A498
SF-295 = tested on: SF-295
BT-549 = tested on: BT-549
NCI-H522 = tested on: NCI-H522
HCC 2998 = tested on: HCC 2998
COLO 205 = tested on: COLO 205
U-251 = tested on: U-251
SR = tested on: SR
TK-10 = tested on: TK-10
LOX IMVI = tested on: LOX IMVI
SF-268 = tested on: SF-268
A549 = tested on: A549
SNB-75 = tested on: SNB-75
CCRF-CEM = tested on: CCRF-CEM
OVCAR-8 = tested on: OVCAR-8
IGROV-1 = tested on: IGROV-1
HOP-62 = tested on: HOP-62

Compound	GI50 (NCI-H23)	GI50 (HOP-92)	GI50 (A498)	GI50 (SF-295)	GI50 (BT-549)	GI50 (NCI-H522)	GI50 (HCC 2998)	GI50 (COLO 205)	GI50 (U-251)	GI50 (SR)	GI50 (TK-10)	GI50 (LOX IMVI)	GI50 (SF-268)	GI50 (A549)	GI50 (SNB-75)	GI50 (CCRF-CEM)	GI50 (OVCAR-8)	GI50 (IGROV-1)	GI50 (HOP-62)
CCOc1cc2c(cc1O)/C(=N/NS(=O)(=O)c1ccc(C)cc1)C[C@@H]1[C@@H]2CC[C@]2(C)[C@@H](O)CC[C@@H]12	32.7 µM (inactive)	8.65 µM (inactive)	9.31 µM (inactive)	3.15 µM (inactive)	3.7 µM (inactive)	3.31 µM (inactive)	3.75 µM (inactive)	3.36 µM (inactive)	6.53 µM (inactive)	1.04 µM (active)	51.1 µM (inactive)	8.43 µM (inactive)	7.13 µM (inactive)	6.46 µM (inactive)	5.3 µM (inactive)	3.79 µM (inactive)	12.4 µM (inactive)	12.1 µM (inactive)	–
COc1ccc2nc3cc([N+](=O)[O-])ccc3c(NNc3ccc(Cl)cc3)c2c1	45.2 µM (inactive)	20.9 µM (inactive)	0.073 µM (active)	56.8 µM (inactive)	29.9 µM (inactive)	22.6 µM (inactive)	8.39 µM (inactive)	12.6 µM (inactive)	21.7 µM (inactive)	12.5 µM (inactive)	1.9 µM (inactive)	26.9 µM (inactive)	43.5 µM (inactive)	17.2 µM (inactive)	40.1 µM (inactive)	22 µM (inactive)	21.1 µM (inactive)	2.94 µM (inactive)	21.8 µM (inactive)
O=c1cc(/N=N\c2ccc(Cl)cc2)[nH]c(=O)[nH]1	7.67 µM (inactive)	2.07 µM (inactive)	> 10 µM (inactive)	13.9 µM (inactive)	3.88 µM (inactive)	1.71 µM (inactive)	3.78 µM (inactive)	2.33 µM (inactive)	4.81 µM (inactive)	1.2 µM (inactive)	7.55 µM (inactive)	1.57 µM (inactive)	4.61 µM (inactive)	10.1 µM (inactive)	14.5 µM (inactive)	1.44 µM (inactive)	5.68 µM (inactive)	3.44 µM (inactive)	7.74 µM (inactive)
COc1cccc(N2C(=O)C3c4[nH]c5ccccc5c4C4CCCC4C3C2=O)c1 (stereo unspecified)	> 10 µM (inactive)	3.59 µM (inactive)	2.17 µM (inactive)	> 10 µM (inactive)	> 10 µM (inactive)	> 10 µM (inactive)	> 10 µM (inactive)	> 10 µM (inactive)	4.06 µM (inactive)	1.48 µM (inactive)	> 10 µM (inactive)	5.38 µM (inactive)	9.66 µM (inactive)	4.62 µM (inactive)	2.24 µM (inactive)	> 10 µM (inactive)	3.74 µM (inactive)	6.71 µM (inactive)	2.52 µM (inactive)
COc1ccc(C2C3=C(COC3=O)OC(C)(C)Oc3cc4c(cc32)OCO4)cc1 (stereo unspecified)	34.4 µM (inactive)	11.8 µM (inactive)	22.8 µM (inactive)	35.2 µM (inactive)	16.9 µM (inactive)	17.4 µM (inactive)	40.5 µM (inactive)	16.1 µM (inactive)	31.8 µM (inactive)	43.1 µM (inactive)	43.5 µM (inactive)	26.2 µM (inactive)	44.6 µM (inactive)	35.6 µM (inactive)	9.46 µM (inactive)	22.4 µM (inactive)	55.8 µM (inactive)	29.3 µM (inactive)	23.6 µM (inactive)
O=c1c2c(no[n+]2[O-])c2ccccc2n1-c1ccccc1	2.44 µM (inactive)	8.47 µM (inactive)	15.6 µM (inactive)	14.8 µM (inactive)	3.03 µM (inactive)	1.73 µM (inactive)	10.5 µM (inactive)	12.2 µM (inactive)	5.19 µM (inactive)	2.82 µM (inactive)	17.3 µM (inactive)	1.69 µM (inactive)	8.22 µM (inactive)	17.9 µM (inactive)	10 µM (inactive)	2.25 µM (inactive)	6.18 µM (inactive)	3.75 µM (inactive)	15.1 µM (inactive)
COc1ccc(C(=O)CC(c2ccccc2)[C@H]2C(c3ccc(OC)cc3)=Nc3c(nc(SC)n(C)c3=O)NC2c2ccccc2)cc1 (stereo partly specified)	> 100 µM (inactive)	> 100 µM (inactive)	> 100 µM (inactive)	> 100 µM (inactive)	> 100 µM (inactive)	> 100 µM (inactive)	> 100 µM (inactive)	> 100 µM (inactive)	> 100 µM (inactive)	> 100 µM (inactive)	> 100 µM (inactive)	> 100 µM (inactive)	> 100 µM (inactive)	> 100 µM (inactive)	–	> 100 µM (inactive)	–	> 100 µM (inactive)	> 100 µM (inactive)
N#C[BH2-][n+]1cn(C2CC(OP(=O)(O)OCC3OC(n4cnc5c(=O)[nH]c(N)nc54)CC3O)C(CO)O2)c2nc(N)[nH]c(=O)c21 (stereo unspecified)	> 100 µM (inactive)	> 100 µM (inactive)	> 100 µM (inactive)	74.3 µM (inactive)	> 100 µM (inactive)	> 100 µM (inactive)	> 100 µM (inactive)	> 100 µM (inactive)	> 100 µM (inactive)	> 100 µM (inactive)	> 100 µM (inactive)	55.5 µM (inactive)	44.4 µM (inactive)	> 100 µM (inactive)	> 100 µM (inactive)	37.8 µM (inactive)	> 100 µM (inactive)	> 100 µM (inactive)	> 100 µM (inactive)
CCCCCCCCCC[C@H](O)[C@H]1CC[C@H]([C@H]2CC[C@H]([C@H](O)CC[C@H](O)CCCCCCC[C@@H](O)CC3=C[C@H](C)OC3=O)O2)O1	1.82 µM (inactive)	6.93 µM (inactive)	1.75 µM (inactive)	1.66 µM (inactive)	68.1 µM (inactive)	10.7 µM (inactive)	> 100 µM (inactive)	12.2 µM (inactive)	> 10 µM (inactive)	9.14 µM (inactive)	31 µM (inactive)	7.46 µM (inactive)	3.57 µM (inactive)	4.6 µM (inactive)	19.1 µM (inactive)	3.6 µM (inactive)	85.7 µM (inactive)	15.7 µM (inactive)	> 10 µM (inactive)
O=C(O)C1CCN(Cc2oc(CO)cc(=O)c2O)C1 (stereo unspecified)	> 100 µM (inactive)	> 100 µM (inactive)	> 100 µM (inactive)	> 100 µM (inactive)	> 100 µM (inactive)	> 100 µM (inactive)	–	> 100 µM (inactive)	> 100 µM (inactive)	> 100 µM (inactive)	> 100 µM (inactive)	> 100 µM (inactive)	> 100 µM (inactive)	> 100 µM (inactive)	> 100 µM (inactive)	> 100 µM (inactive)	> 100 µM (inactive)	> 100 µM (inactive)	> 100 µM (inactive)
ClC1(c2ccccc2)c2ccc(Br)cc2-c2cc(Br)ccc21	15 µM (inactive)	15.6 µM (inactive)	18.8 µM (inactive)	17.9 µM (inactive)	17.2 µM (inactive)	14.2 µM (inactive)	19.7 µM (inactive)	17.7 µM (inactive)	17.6 µM (inactive)	32.7 µM (inactive)	19 µM (inactive)	17.8 µM (inactive)	18.5 µM (inactive)	17.1 µM (inactive)	–	34.6 µM (inactive)	18.2 µM (inactive)	16.2 µM (inactive)	19.3 µM (inactive)
Cn1c(=O)c(-c2ccccc2)c(N=[N+]=[N-])c2ccccc21	38.7 µM (inactive)	17.9 µM (inactive)	42.6 µM (inactive)	47.9 µM (inactive)	44.2 µM (inactive)	26 µM (inactive)	22.4 µM (inactive)	44 µM (inactive)	34.8 µM (inactive)	25.3 µM (inactive)	> 100 µM (inactive)	–	39.5 µM (inactive)	67.8 µM (inactive)	4.46 µM (inactive)	30.8 µM (inactive)	49.3 µM (inactive)	> 100 µM (inactive)	45 µM (inactive)
Cc1ccc(/C=C2\CCCCCC2=O)cc1	> 100 µM (inactive)	> 100 µM (inactive)	> 100 µM (inactive)	> 100 µM (inactive)	> 100 µM (inactive)	> 100 µM (inactive)	> 100 µM (inactive)	> 100 µM (inactive)	> 100 µM (inactive)	> 100 µM (inactive)	> 100 µM (inactive)	> 100 µM (inactive)	> 100 µM (inactive)	> 100 µM (inactive)	> 100 µM (inactive)	41.3 µM (inactive)	–	> 100 µM (inactive)	> 100 µM (inactive)
C[C@]12Cc3cnn(-c4ccc(F)cc4)c3NC1CC[C@@H]1C2CC[C@@]2(C)C1CC[C@@H]2O (stereo partly specified)	2.85 µM (inactive)	11 µM (inactive)	8.83 µM (inactive)	1.62 µM (inactive)	3.14 µM (inactive)	12.2 µM (inactive)	5.41 µM (inactive)	2.94 µM (inactive)	5.15 µM (inactive)	0.537 µM (active)	7.71 µM (inactive)	–	10.1 µM (inactive)	4.14 µM (inactive)	2.76 µM (inactive)	6.92 µM (inactive)	12.5 µM (inactive)	12.7 µM (inactive)	9.75 µM (inactive)
COc1nncc2[nH]c(-c3ccccc3)cc12	> 100 µM (inactive)	> 100 µM (inactive)	22.3 µM (inactive)	82.4 µM (inactive)	40.5 µM (inactive)	–	> 100 µM (inactive)	> 100 µM (inactive)	49 µM (inactive)	37.5 µM (inactive)	53.1 µM (inactive)	65 µM (inactive)	65.8 µM (inactive)	65.3 µM (inactive)	58.1 µM (inactive)	44.9 µM (inactive)	92.5 µM (inactive)	> 100 µM (inactive)	> 100 µM (inactive)
